The record followed here is ChEMBL document CHEMBL4270599, “Synthesis of a 3'-C-ethynyl-β-d-ribofuranose purine nucleoside library: Discovery of C7-deazapurine analogs as potent antiproliferative nucleosides” (Eur J Med Chem, 2018).

Format in all cases: functional
In experiment [1] the test system is HOP-62. Nature of the experiment: Growth inhibition of human HOP62 cells assessed as cell growth at 10^-5 M incubated for 48 hrs by sulforhodamine B assay relative to control. The note with it: HOP-62, 48 h, read-out: Activity. For orientation: Sulforhodamine B stains cellular protein and so reports cell mass.
The test system of experiment [2] is LOX IMVI. As to the kind of experiment: Growth inhibition of human LOXIMVI cells assessed as cell growth at 10^-4 M incubated for 48 hrs by sulforhodamine B assay relative to control. The note with it: read-out: Activity.
In experiment [3] the test system is MDA-MB-468. As to the kind of experiment: Growth inhibition of human MDA-MB-468 cells assessed as cell growth at 10^-7 M incubated for 48 hrs by sulforhodamine B assay relative to control. Conditions: MDA-MB-468, 48 h, read-out: Activity.
Experiment [4] has as its system MDA-MB-468. As to the kind of experiment: Growth inhibition of human MDA-MB-468 cells assessed as cell growth at 10^-5 M incubated for 48 hrs by sulforhodamine B assay relative to control. Conditions: MDA-MB-468, 48 h, read-out: Activity.
Experiment [5] has as its system NCI-H522. As to the kind of experiment: Growth inhibition of human NCI-H522 cells assessed as cell growth at 10^-5 M incubated for 48 hrs by sulforhodamine B assay relative to control. Conditions: NCI-H522, 48 h, read-out: Activity.
In experiment [6] the test system is HOP-92. As to the kind of experiment: Growth inhibition of human HOP92 cells assessed as cell growth at 10^-4 M incubated for 48 hrs by sulforhodamine B assay relative to control. The note with it: HOP-92, 48 h, read-out: Activity.
Experiment [7] relates to MDA-MB-435. As to the kind of experiment: Growth inhibition of human MDA-MB-435 cells assessed as cell growth at 10^-4 M incubated for 48 hrs by sulforhodamine B assay relative to control. The note with it: MDA-MB-435, 48 h, read-out: Activity.
In experiment [8] the test system is PC-3. Nature of the experiment: Growth inhibition of human PC3 cells assessed as cell growth at 10^-5 M incubated for 48 hrs by sulforhodamine B assay relative to control. The note with it: PC-3, 48 h, read-out: Activity.
Experiment [9] relates to SNB-75. As to the kind of experiment: Growth inhibition of human SNB75 cells assessed as cell growth at 10^-4 M incubated for 48 hrs by sulforhodamine B assay relative to control. Conditions: SNB-75, 48 h, read-out: Activity.
Experiment [10] relates to SF-539. Nature of the experiment: Growth inhibition of human SF539 cells assessed as cell growth at 10^-4 M incubated for 48 hrs by sulforhodamine B assay relative to control. Conditions: SF-539, 48 h, read-out: Activity.
Experiment [11] relates to SK-OV-3. Nature of the experiment: Growth inhibition of human SKOV3 cells assessed as cell growth at 10^-6 M incubated for 48 hrs by sulforhodamine B assay relative to control. The note with it: SK-OV-3, 48 h, read-out: Activity.
The subject of experiment [12] is HCC 2998. Nature of the experiment: Growth inhibition of human HCC2998 cells assessed as cell growth at 10^-5 M incubated for 48 hrs by sulforhodamine B assay relative to control. The note with it: HCC 2998, 48 h, read-out: Activity.
For experiment [13], the system named is 786-0. As to the kind of experiment: Growth inhibition of human 786-0 cells assessed as cell growth at 10^-4 M incubated for 48 hrs by sulforhodamine B assay relative to control. The note with it: 786-0, 48 h, read-out: Activity.
For experiment [14], the system named is SNB-19. Nature of the experiment: Growth inhibition of human SNB19 cells assessed as cell growth at 10^-4 M incubated for 48 hrs by sulforhodamine B assay relative to control. Conditions: SNB-19, 48 h, read-out: Activity.
For experiment [15], the system named is COLO 205. As to the kind of experiment: Growth inhibition of human COLO205 cells assessed as cell growth at 10^-4 M incubated for 48 hrs by sulforhodamine B assay relative to control. The note with it: COLO 205, 48 h, read-out: Activity.
Experiment [16] deals with NCI-H522. As to the kind of experiment: Growth inhibition of human NCI-H522 cells assessed as cell growth at 10^-6 M incubated for 48 hrs by sulforhodamine B assay relative to control. Conditions: NCI-H522, 48 h, read-out: Activity.
Experiment [17] relates to T47D. As to the kind of experiment: Growth inhibition of human T47D cells assessed as cell growth at 10^-5 M incubated for 48 hrs by sulforhodamine B assay relative to control. Conditions: read-out: Activity.
Experiment [18] has as its system T47D. As to the kind of experiment: Growth inhibition of human T47D cells assessed as cell growth at 10^-4 M incubated for 48 hrs by sulforhodamine B assay relative to control. The note with it: read-out: Activity.
For experiment [19], the system named is RXF 393. As to the kind of experiment: Growth inhibition of human RXF393 cells assessed as cell growth at 10^-4 M incubated for 48 hrs by sulforhodamine B assay relative to control. The note with it: RXF 393, 48 h, read-out: Activity.
The test system of experiment [20] is MDA-MB-468. As to the kind of experiment: Growth inhibition of human MDA-MB-468 cells assessed as cell growth at 10^-4 M incubated for 48 hrs by sulforhodamine B assay relative to control. Conditions: MDA-MB-468, 48 h, read-out: Activity.
For experiment [21], the system named is NCI-H23. As to the kind of experiment: Growth inhibition of human NCI-H23 cells assessed as cell growth at 10^-4 M incubated for 48 hrs by sulforhodamine B assay relative to control. Conditions: NCI-H23, 48 h, read-out: Activity.
The subject of experiment [22] is SF-539. As to the kind of experiment: Growth inhibition of human SF539 cells assessed as cell growth at 10^-5 M incubated for 48 hrs by sulforhodamine B assay relative to control. Conditions: SF-539, 48 h, read-out: Activity.
Experiment [23] relates to IGROV-1. Nature of the experiment: Growth inhibition of human IGROV1 cells assessed as cell growth at 10^-5 M incubated for 48 hrs by sulforhodamine B assay relative to control. The note with it: IGROV-1, 48 h, read-out: Activity.
The subject of experiment [24] is NCI-H522. As to the kind of experiment: Growth inhibition of human NCI-H522 cells assessed as cell growth at 10^-4 M incubated for 48 hrs by sulforhodamine B assay relative to control. Conditions: NCI-H522, 48 h, read-out: Activity.
In experiment [25] the test system is SK-MEL-28. As to the kind of experiment: Growth inhibition of human SK-MEL-28 cells assessed as cell growth at 10^-4 M incubated for 48 hrs by sulforhodamine B assay relative to control. The note with it: SK-MEL-28, 48 h, read-out: Activity.
For experiment [26], the system named is OVCAR-5. As to the kind of experiment: Growth inhibition of human OVCAR5 cells assessed as cell growth at 10^-8 M incubated for 48 hrs by sulforhodamine B assay relative to control. The note with it: OVCAR-5, 48 h, read-out: Activity.
The test system of experiment [27] is OVCAR-8. Nature of the experiment: Growth inhibition of human OVCAR8 cells assessed as cell growth at 10^-4 M incubated for 48 hrs by sulforhodamine B assay relative to control. Conditions: OVCAR-8, 48 h, read-out: Activity.
In experiment [28] the test system is SK-MEL-5. As to the kind of experiment: Growth inhibition of human SK-MEL-5 cells assessed as cell growth at 10^-5 M incubated for 48 hrs by sulforhodamine B assay relative to control. The note with it: SK-MEL-5, 48 h, read-out: Activity.
Experiment [29] relates to RPMI-8226. As to the kind of experiment: Growth inhibition of human RPMI8226 cells assessed as cell growth at 10^-4 M incubated for 48 hrs by sulforhodamine B assay relative to control. The note with it: RPMI-8226, 48 h, read-out: Activity.
In experiment [30] the test system is HT-29. As to the kind of experiment: Growth inhibition of human HT-29 cells assessed as cell growth at 10^-5 M incubated for 48 hrs by sulforhodamine B assay relative to control. The note with it: HT-29, 48 h, read-out: Activity.
Experiment [31] has as its system RXF 393. As to the kind of experiment: Growth inhibition of human RXF393 cells assessed as cell growth at 10^-5 M incubated for 48 hrs by sulforhodamine B assay relative to control. The note with it: RXF 393, 48 h, read-out: Activity.
In experiment [32] the test system is UACC-62. Nature of the experiment: Growth inhibition of human UACC62 cells assessed as cell growth at 10^-4 M incubated for 48 hrs by sulforhodamine B assay relative to control. The note with it: UACC-62, 48 h, read-out: Activity.
In experiment [33] the test system is BT-549. Nature of the experiment: Growth inhibition of human BT549 cells assessed as cell growth at 10^-4 M incubated for 48 hrs by sulforhodamine B assay relative to control. The note with it: BT-549, 48 h, read-out: Activity.

In the case of `C#C[C@@]1(O)[C@@H](CO)O[C@@H](n2cc(F)c3c(N)ncnc32)[C@@H]1O`, the growth at 10 µM was -4% in experiment [1]; -57% in experiment [4]; -24% in experiment [5]; -10% in experiment [8]; -45% in experiment [12]; -39% in experiment [17]. Also, the growth at 10 µM was -23% in experiment [22]; -33% in experiment [23]; -89% in experiment [28]; 2% in experiment [30]; -46% in [31]. The growth at 100 µM in [2] was -90%; in experiment [6], -47%; in experiment [7], -63%; in [9] it was -86%; in experiment [10], -39%; in [13], -36%. Also, the growth at 100 µM is -45% in experiment [14]; -63% in [15]; -77% in experiment [18]; -49% in experiment [19]; -68% in experiment [20]; -25% in experiment [21]. Also, the growth at 100 µM in [24] is -40%; in experiment [25], 19%; in experiment [27], -27%; in experiment [29] it was -21%; in experiment [32], -78%; in [33], -42%. Moreover, the growth at 0.1 µM in [3] worked out at 84%. Moreover, the growth at 1 µM in experiment [11] was 12%; in [16] it was -2%. Also, in experiment [26], the growth at 0.01 µM is 96%.
Consider `C#C[C@@]1(O)[C@@H](CO)O[C@@H](n2cc(Cl)c3c(N)ncnc32)[C@@H]1O`, for which, in experiment [3], the growth at 0.1 µM lay in the range of 82 to 89%. Further, in experiment [26], the growth at 0.01 µM lay within 95 to 97%.
In the case of `C#C[C@@]1(O)[C@@H](CO)O[C@@H](n2ccc3c(N)ncnc32)[C@@H]1O`, the growth at 10 µM in experiment [1] is -9%; in experiment [4], -58%; in experiment [5] it was -21%; in experiment [8], -37%; in experiment [12] it was -76%; in experiment [17] it was -61%. Also, the growth at 10 µM in experiment [22] is -48%; in experiment [23], -19%; in experiment [28], -95%; in [31], -45%. In addition, the growth at 100 µM is -92% in [2]; -87% in experiment [6]; -76% in experiment [7]; -42% in experiment [9]; -82% in [10]; -95% in [13]. The growth at 100 µM in [14] was -32%; in experiment [15] it was -72%; in [18] it was -71%; in experiment [19], -92%; in experiment [20] it was -62%; in experiment [21] it was -35%. The growth at 100 µM in [24] was -42%; in experiment [25], -47%; in experiment [27], -65%; in experiment [29] it was 2%; in [32] it was -65%; in [33] it was -95%. Further, in experiment [3], the growth at 0.1 µM turned out to be 97%. Besides, the growth at 1 µM in [11] amounted to 52%; in [16], 29%. Besides, the growth at 0.01 µM in experiment [26] was found to be 87%.
As for `C#C[C@@]1(O)[C@@H](CO)O[C@@H](n2cc(I)c3c(N)ncnc32)[C@@H]1O`, the growth at 0.1 µM in experiment [3] is 65 to 68%. Also, the growth at 10 µM in experiment [8] came to 2%. Moreover, the growth at 0.01 µM in experiment [26] lay in the range of 79 to 80%.
With `C#C[C@@]1(O)[C@@H](CO)O[C@@H](n2cc(Br)c3c(N)ncnc32)[C@@H]1O`, the growth at 0.1 µM in experiment [3] fell in the range of 56 to 87%. The results for the growth at 10 µM in [8] and in experiment [30] were 3% and 1 to 3%, respectively. The growth at 0.01 µM in [26] was 98 to 99%.
